Results published in US10674732B2, “Anti-phytopathogenic compositions” (The State of Israel, Ministry Of Agriculture & Rural …, priority 2015, dated 2020).
In brackets after ≈: the same amount, converted by molar mass.

What was measured:
DLB = DLB antibiotic susceptibility test; format: cell-based, Dyella-like bacterium
spiroplasma = experiment: Antagonistic test of the bacteria's specific compounds (synthetic compounds on spiroplasma in vitro); format: cell-based, Spiroplasma melliferum; conditions: 1 milimolar, three days at 29° C.
Method: After potential inhibitory compounds (4-Quinolinecarboxaldehyde and 5-Hydroxymethyl-2-furaldehyde) were identified in the active fraction extracts of the bacteria's supernatant, parallel synthetic compound were purchased (Sigma) and examined on spiroplasma in vitro: 1 ml of spiroplasma medium, 10 μl spiroplasma cells and 10 μl of each compound (final concentration of 1 milimolar) were incubated for three days at 29° C. […] Changes in the indicator color from red to yellow indicated spiroplasma growth.

Spiroplasma melliferum [1] = experiment: Microplate test of spiroplasma growth (OD=595 nm); format: cell-based; conditions: for spiroplasma growth inhibition: single compound
Method: For this reason, the potential inhibition of these substances was tested on Spiroplasma melliferum, a cultivable Mollicute. The experiment was conducted in a 96-wells microplate. 150 μl fresh broth containing phenol red and 4 μl spiroplasma cells (app. 10^5 cells) were added to each well. […] The microplate was incubated for two days at 28° C. and the color of the medium was scored by a plate-reader (Multiskan EX, Thermo scientific, Waltham, Mass. USA) at OD=595 nm.

Spiroplasma melliferum [2] = experiment: Antagonistic test of the bacteria's supernatant (time to color change of phenol red medium); conditions: 0.5 μg/ml

With CC(=O)OCC1=C(C(=O)O)N2C(=O)[C@@H](NC(=O)Cc3cccs3)[C@H]2SC1 [cephalothin] the Inhibition cycle diameter (DLB) was 2 mm and the “resistance of the bacterium to the antibiotic” value (shortened to “resistance of the bacterium”) (DLB) was “resistant”.
In the case of O=Cc1ccnc2ccccc12 [Quinolinecarboxaldehyde, 4-Quinolinecarboxaldehyde], the spiroplasma growth inhibition (spiroplasma) is reported as “able to inhibit”, the spiroplasma growth inhibition (Spiroplasma melliferum [1]; 1 mM) is reported as “inhibited” and the spiroplasma growth inhibition (Spiroplasma melliferum [1]; 2 mM) is reported as “inhibited”. For the same compound, the “minimum inhibitory concentration (MIC) compared with reference oxytetracycline” value (Spiroplasma melliferum [1]; two days at 28° C.) was “higher than the reference antibiotics”.
CO/N=C(\C(=O)N[C@@H]1C(=O)N2C(C(=O)[O-])=C(C[N+]3(C)CCCC3)CS[C@H]12)c1csc(N)n1 [cefeprime] was tested, and the Inhibition cycle diameter (DLB) was 1 mm and the “resistance of the bacterium” value (DLB) was “resistant”.
Compound COc1cc(Cc2cnc(N)nc2N)cc(OC)c1OC [trimethoprime] has an Inhibition cycle diameter (DLB) of 10 mm.
For colistinsulfate, the Inhibition cycle diameter (DLB) was 2-3 mm and the “resistance of the bacterium” value (DLB) was “resistant”.
With CO/N=C(\C(=O)N[C@@H]1C(=O)N2C(C(=O)O)=C(CSc3nc(=O)c(=O)[nH]n3C)CS[C@H]12)c1csc(N)n1 [ceftriaxone] the Inhibition cycle diameter (DLB) was 10 mm.
With CO/N=C(\C(=O)N[C@@H]1C(=O)N2C(C(=O)O)=C(COC(N)=O)CS[C@H]12)c1ccco1 [cefuroxime] the Inhibition cycle diameter (DLB) was 1 mm and the “resistance of the bacterium” value (DLB) was “resistant”.
In the case of CC1(C)S[C@@H]2[C@H](NC(=O)[C@H](N)c3ccccc3)C(=O)N2[C@H]1C(=O)O [ampicilin A], the Inhibition cycle diameter (DLB) is reported as 10 mm.
For O=Cc1ccc(CO)o1 [Hydroxymethyl-2-furaldehyde, 5-Hydroxymethyl-2-furaldehyde], the spiroplasma growth inhibition (spiroplasma) was “no inhibition” and the spiroplasma growth inhibition (Spiroplasma melliferum [1]; concentrations examined (2-0.02 mM)) was “No inhibition”.
NC[C@H]1O[C@H](O[C@H]2[C@H](O)[C@@H](O[C@H]3O[C@H](CO)[C@@H](O)[C@H](N)[C@H]3O)[C@H](N)C[C@@H]2N)[C@H](O)[C@@H](O)[C@@H]1O [kanamycin] was tested, and the Inhibition cycle diameter (DLB) was 10 mm.
Compound NC[C@H]1O[C@H](O[C@H]2[C@H](O)[C@@H](O[C@H]3O[C@H](CO)[C@@H](O)[C@H](N)[C@H]3O)[C@H](N)C[C@@H]2N)[C@H](N)C[C@@H]1O [tobaramycin] has an Inhibition cycle diameter (DLB) of 10 mm.
With NCC[C@H](O)C(=O)N[C@@H]1C[C@H](N)[C@@H](O[C@H]2O[C@H](CN)[C@@H](O)[C@H](O)[C@H]2O)[C@H](O)[C@H]1O[C@H]1O[C@H](CO)[C@@H](O)[C@H](N)[C@H]1O [amikacin] the Inhibition cycle diameter (DLB) was 10 mm.
c1cc2cnccn2c1 [Pyrrolo[1,2-a]pyrazine] was tested, and the spiroplasma growth inhibition (Spiroplasma melliferum [1]; 1 mM) was “at 2 mM only” and the spiroplasma growth inhibition (Spiroplasma melliferum [1]; 2 mM) was “inhibit”.
CC1(C)S[C@@H]2[C@H](NC(=O)C(C(=O)O)c3ccccc3)C(=O)N2[C@H]1C(=O)O (stereo partly shown) [carbencillin] was tested, and the Inhibition cycle diameter (DLB) was 10 mm.
neomycin gave an Inhibition cycle diameter (DLB) of 10 mm.
O=C1CN(/N=C/c2ccc([N+](=O)[O-])o2)C(=O)N1 [nitrofuration] was tested, and the Inhibition cycle diameter (DLB) was 2 mm and the “resistance of the bacterium” value (DLB) was “resistant”.
CN(C)[C@@H]1C(O)=C(C(N)=O)C(=O)[C@@]2(O)C(O)=C3C(=O)c4c(O)cccc4[C@@](C)(O)[C@H]3[C@H](O)[C@@H]12 [oxytetracycline] was tested, and the MIC (Spiroplasma melliferum [1]; Spiroplasma melliferum, 48 h, two days at 28° C., FIG. 9, read-out: minimum inhibitory concentration (MIC)) was 350 µM (≈ 161 µg/mL) and the “Inhibition index (ratio of days to color change to the time required in the positive control)” value (Spiroplasma melliferum [2]) was 2.3.
In the case of O=C(N[C@H](CO)[C@H](O)c1ccc([N+](=O)[O-])cc1)C(Cl)Cl [chloramphenicol], the Inhibition cycle diameter (DLB) is reported as 10 mm.
CCn1cc(C(=O)O)c(=O)c2cc(F)c(N3CCNCC3)cc21 [norfloxacin] was tested, and the Inhibition cycle diameter (DLB) was 2 mm and the “resistance of the bacterium” value (DLB) was “resistant”.
Compound Cc1cc(NS(=O)(=O)c2ccc(N)cc2)no1 [sulphamethoxazole] has an Inhibition cycle diameter (DLB) of 10 mm.
For CN[C@H](CC(C)C)C(=O)N[C@H]1C(=O)N[C@@H](CC(N)=O)C(=O)N[C@H]2C(=O)N[C@H]3C(=O)N[C@H](C(=O)N[C@H](C(=O)O)c4cc(O)cc(O)c4-c4cc3ccc4O)[C@H](O)c3ccc(c(Cl)c3)Oc3cc2cc(c3O[C@@H]2O[C@H](CO)[C@@H](O)[C@H](O)[C@H]2O[C@H]2C[C@](C)(N)[C@H](O)[C@H](C)O2)Oc2ccc(cc2Cl)[C@H]1O [vancomycin], the Inhibition cycle diameter (DLB) was 10 mm.
With O=C(O)c1cn(C2CC2)c2cc(N3CCNCC3)c(F)cc2c1=O [ciprofloxacin] the Inhibition cycle diameter (DLB) was 2 mm and the “resistance of the bacterium” value (DLB) was “resistant”.
C[C@H]1[C@H](NC(=O)/C(=N\OC(C)(C)C(=O)O)c2csc(N)n2)C(=O)N1S(=O)(=O)O [aztreonam] was tested, and the Inhibition cycle diameter (DLB) was 1 mm and the “resistance of the bacterium” value (DLB) was “resistant”.
gentanicin G was tested, and the Inhibition cycle diameter (DLB) was 10 mm.
In the case of CCn1cc(C(=O)O)c(=O)c2ccc(C)nc21 [nalidixic acid], the Inhibition cycle diameter (DLB) is reported as 1 mm and the “resistance of the bacterium” value (DLB) is reported as “resistant”.
With C[C@@H](O)[C@H]1C(=O)N2C(C(=O)O)=C(SCCN=CN)C[C@H]12 [imipenem] the Inhibition cycle diameter (DLB) was 2-3 mm.
CC1(C)S[C@@H]2[C@H](NC(=O)[C@H](C(=O)O)c3ccsc3)C(=O)N2[C@H]1C(=O)O [ticarcillin] was tested, and the Inhibition cycle diameter (DLB) was 10 mm.
For polymyxin-B, the Inhibition cycle diameter (DLB) was 10 mm.
For C[C@@H](O)[C@H]1C(=O)N2C(C(=O)O)=C(S[C@@H]3CN[C@H](C(=O)N(C)C)C3)[C@H](C)[C@H]12 [meropenem], the Inhibition cycle diameter (DLB) was 1 mm and the “resistance of the bacterium” value (DLB) was “resistant”.
For [H]/N=C(/N)N[C@H]1[C@H](O)[C@@H](O)[C@H](O[C@@H]2O[C@@H](C)[C@](O)(C=O)[C@H]2O[C@@H]2O[C@@H](CO)[C@H](O)[C@@H](O)[C@@H]2NC)[C@@H](N/C(N)=N\[H])[C@@H]1O [streptomycin], the Inhibition cycle diameter (DLB) was 10 mm.
In the case of CC1(C)S[C@@H]2[C@H](NC(=O)[C@H](N)c3ccc(O)cc3)C(=O)N2[C@H]1C(=O)O [amoxycillin], the Inhibition cycle diameter (DLB) is reported as 10 mm.
Compound CN(C)[C@@H]1C(O)=C(C(N)=O)C(=O)[C@@]2(O)C(O)=C3C(=O)c4c(O)cccc4[C@@](C)(O)[C@H]3C[C@@H]12 [tetracycline] has an Inhibition cycle diameter (DLB) of 10 mm.
With CCN1CCN(C(=O)N[C@@H](C(=O)N[C@@H]2C(=O)N3[C@@H]2SC(C)(C)[C@@H]3C(=O)O)c2ccccc2)C(=O)C1=O [piperacillin] the Inhibition cycle diameter (DLB) was 10 mm.
